Results published in patent US9428519B2, “Acylated derivative of homoharringtonine, preparation method therefor, and application thereof” (HANGZHOU BENSHENG PHARMACEUTICAL CO., LTD., priority 2011, dated 2016).
Converted amounts (≈) assume the structure as drawn.

Key:
[1] = test system: Kasumi-1 (acute myeloid leukemia M2 type, AML-M2); assay: MTT growth inhibition of leukemia cells, 72 h; assay type: cell-based, human
Description: (§1) Leukemia cell lines: leukemia cell lines: K562/adr (drug-resistant, chronic myeloid leukemia, CML), NB4 (acute promyelocytic leukemia, AML), Kasumi-1 (acute myeloid leukemia M2 type, AML-M2), Jurkat (acute lymphoblastic leukemia, ALL), all of which are donated by Cancer Research Institute of Zhejiang University, China; and H9 (acute lymphoblastic leukemia, ALL), which is purchased from China Center for Type Culture Collection (CCTCC).
(§2) Reagents: The standard sample of homoharringtonine (HHT) is purchased from Taihua Natural Plant Pharmaceutical Co., Ltd., Shaanxi, China, the homoharringtonine derivatives of the present invention.
(§3) Obtaining 6000 well-growing leukemia cells and inoculating them into wells of a 96-well cell culture plate. The culture medium is the 1640 cell culture medium containing 10% fetal bovine serum. After adding the homoharringtonine derivatives of different concentrations and mixing uniformly, placing the plate in a carbon dioxide cell incubator (5% CO2) at 37° C. and incubated for 72 hours. Then the viable cell concentration is determined by the MTT method. In this experiment, the cell viability in control group (not treated with any compound) is set as 100%. On such basis, the cell viability (%) after treatment and the 50% inhibiting concentration of the compound for the leukemia cell growth at 72 hours (IC50 value of 72 hours) are calculated.

[2] = test system: NB4 (acute promyelocytic leukemia, AML); assay: MTT growth inhibition of leukemia cells, 72 h; assay type: cell-based, human; settings: MTT
Description: as §1, §2, §3

[3] = test system: H9 (acute lymphoblastic leukemia, ALL); assay: MTT growth inhibition of leukemia cells, 72 h; assay type: cell-based, human; settings: MTT
Description: as §1, §2, §3

[4] = test system: K562/adr (drug-resistant, chronic myeloid leukemia, CML); assay: MTT growth inhibition of leukemia cells, 72 h; assay type: cell-based, human; settings: MTT
Description: as §1, §2, §3

[5] = test system: Jurkat (acute lymphoblastic leukemia, ALL); assay: MTT growth inhibition of leukemia cells, 72 h; assay type: cell-based, human
Description: as §1, §2, §3

[6] = test system: CaES-17 (esophageal cancer cell); assay: MTT growth inhibition of human solid tumor cells, 72 h; assay type: cell-based
Protocol: (§4) Human solid tumor cell lines: Hep-2 (laryngeal carcinoma), A549 (human lung cancer), CaES-17 (esophageal cancer cell), PC-3 (prostate cancer), CNE (nasopharyngeal carcinoma cell), and SK-OV-3 (ovarian cancer cell), all of which are purchased from China Center For Type Culture Collection; RKO (human colon adenocarcinoma cell), MGC 803 (human gastric cancer cell), MG63 (osteosarcoma) and U87 MG (malignant glioma cell), all of which are purchased from Fuxiang Bio-tech Co. Ltd., Shanghai, China; PANC-1 (pancreatic cancer), Huh7 (human liver cancer cell), Becap37 (human breast cancer cell), and Hela (human cervical cancer cell), all of which are donated by Cancer Research Institute of Zhejiang University, China.
(§5) Obtaining 4000 well-growing human solid tumor cells and inoculating them into wells of a 96-well cell culture plate. The culture medium is DMEM High Glucose cell culture medium containing 10% fetal bovine serum. The plate is placed in a carbon dioxide cell incubator (5% CO2) at 37° C. and incubated for 24 hours. After adding the homoharringtonine derivatives of different concentration and mixing uniformly, the plate is placed in a carbon dioxide cell incubator (5% CO2) at 37° C. and incubated for 72 hours. Then the viable cell concentration is determined by the MTT method and the cell viability (%) after drug treatment is calculated. In this experiment, the cell viability of control group (not treated with any compound) is set as 100%.

[7] = test system: A549 (human lung cancer); assay: as above; assay type: cell-based
Protocol: as §4, §5

[8] = test system: RKO (human colon adenocarcinoma cell); assay: as above; assay type: cell-based
Protocol: as §4, §5

[9] = test system: MGC 803 (human gastric cancer cell); assay: as above; assay type: cell-based
Protocol: as §4, §5

[10] = test system: PC-3 (prostate cancer); assay: as above; assay type: cell-based; settings: MTT
Protocol: as §4, §5

[11] = test system: MG63 (osteosarcoma); assay: as above; assay type: cell-based
Protocol: as §4, §5

[12] = test system: CNE (nasopharyngeal carcinoma cell); assay: as above; assay type: cell-based; settings: MTT
Protocol: as §4, §5

[13] = test system: Huh7 (human liver cancer cell); assay: as above; assay type: cell-based
Protocol: as §4, §5

[14] = test system: U87 MG (malignant glioma cell); assay: as above; assay type: cell-based
Protocol: as §4, §5

[15] = test system: SK-OV-3 (ovarian cancer cell); assay: as above; assay type: cell-based
Protocol: as §4, §5

[16] = test system: PANC-1 (pancreatic cancer); assay: as above; assay type: cell-based
Protocol: as §4, §5

[17] = test system: Hela (human cervical cancer cell); assay: as above; assay type: cell-based; settings: MTT
Protocol: as §4, §5

[18] = test system: Hep-2 (laryngeal carcinoma); assay: as above; assay type: cell-based
Protocol: as §4, §5

[19] = test system: Becap37 (human breast cancer cell); assay: as above; assay type: cell-based
Protocol: as §4, §5

[20] = test system: RPMI8226 (multiple myeloma); assay: MTT growth inhibition of multiple myeloma cells, 72 h; assay type: cell-based, human
Protocol: Multiple myeloma and lymphoma cell lines: RPMI8226 (multiple myeloma), purchased from Fuxiang Bio-tech Co. Ltd., Shanghai, China.
as §3

SMILES: COC(=O)C[C@](O)(CCCC(C)(C)OC(=O)c1ccco1)C(=O)O[C@@H]1C(OC)=C[C@]23CCCN2CCc2cc4c(cc2[C@H]13)OCO4 [BS-HH-059]
- IC50 ([1]; Homo sapiens, Kasumi 1, MTT): 0.005 mg/L (≈ 0.00782 µM)
- IC90 ([1]; Homo sapiens, Kasumi 1, MTT): 0.012 mg/L (≈ 0.0188 µM)
- IC50 ([2]; Homo sapiens): 0.006 mg/L (≈ 0.00938 µM)
- IC90 ([2]; Homo sapiens): 0.012 mg/L (≈ 0.0188 µM)
- IC50 ([3]; Homo sapiens): 0.007 mg/L (≈ 0.0109 µM)
- IC90 ([3]; Homo sapiens): 0.02 mg/L (≈ 0.0313 µM)
- IC50 ([4]; Homo sapiens, K562/Adr): 0.03 mg/L (≈ 0.0469 µM)
- IC90 ([4]; Homo sapiens, K562/Adr): 0.35 mg/L (≈ 0.547 µM)
- IC50 ([5]; Homo sapiens, Jurkat): 0.003 mg/L (≈ 0.00469 µM)
- IC90 ([5]; Homo sapiens, Jurkat): ≥ 16 mg/L
- IC50 ([6]; Homo sapiens, CaEs17): 0.029 mg/L (≈ 0.0453 µM)
- IC90 ([6]; Homo sapiens, CaEs17): 16 mg/L (≈ 25 µM)
- IC50 ([7]; Homo sapiens, A549): 0.03 mg/L (≈ 0.0469 µM)
- IC90 ([7]; Homo sapiens, A549): > 16 mg/L
- IC50 ([8]; Homo sapiens, MTT): 0.001 mg/L (≈ 0.00156 µM)
- IC90 ([8]; Homo sapiens, MTT): 0.015 mg/L (≈ 0.0234 µM)
- anti-RKO effect relative to homoharringtonine ([8]; vs HHT): substantially superior
- IC50 ([9]; Homo sapiens, MGC-803): 0.021 mg/L (≈ 0.0328 µM)
- IC90 ([9]; Homo sapiens, MGC-803): 0.11 mg/L (≈ 0.172 µM)
- IC50 ([10]; Homo sapiens): 0.08 mg/L (≈ 0.125 µM)
- IC90 ([10]; Homo sapiens): > 16 mg/L
- IC50 ([11]; Homo sapiens, MG-63, MTT): 0.02 mg/L (≈ 0.0313 µM)
- IC90 ([11]; Homo sapiens, MG-63, MTT): 3.08 mg/L (≈ 4.81 µM)
- anti-MG63 effect relative to homoharringtonine ([11]; vs HHT): substantially superior
- IC50 ([12]; Homo sapiens): 0.031 mg/L (≈ 0.0485 µM)
- IC90 ([12]; Homo sapiens): > 16 mg/L
- IC50 ([13]; Homo sapiens, Huh-7): 0.012 mg/L (≈ 0.0188 µM)
- IC90 ([13]; Homo sapiens, Huh-7): 0.081 mg/L (≈ 0.127 µM)
- IC50 ([14]; Homo sapiens, U-87 MG): 0.023 mg/L (≈ 0.036 µM)
- IC90 ([14]; Homo sapiens, U-87 MG): 0.18 mg/L (≈ 0.281 µM)
- IC50 ([15]; Homo sapiens, SK-OV-3, MTT): 0.08 mg/L (≈ 0.125 µM)
- IC90 ([15]; Homo sapiens, SK-OV-3, MTT): > 16 mg/L
- IC50 ([16]; Homo sapiens, PANC-1, MTT): 0.029 mg/L (≈ 0.0453 µM)
- IC90 ([16]; Homo sapiens, PANC-1, MTT): > 16 mg/L
- IC50 ([17]; Homo sapiens, HeLa): 0.014 mg/L (≈ 0.0219 µM)
- IC90 ([17]; Homo sapiens, HeLa): 16 mg/L (≈ 25 µM)
- IC50 ([18]; Homo sapiens, HEp-2): 0.015 mg/L (≈ 0.0234 µM)
- IC90 ([18]; Homo sapiens, HEp-2): > 16 mg/L
- IC50 ([19]; Homo sapiens): 0.007 mg/L (≈ 0.0109 µM)
- IC90 ([19]; Homo sapiens): 7.4 mg/L (≈ 11.6 µM)
- IC50 ([20]; Homo sapiens, RPMI-8226, MTT): 0.006 mg/L (≈ 0.00938 µM)
- IC90 ([20]; Homo sapiens, RPMI-8226, MTT): 0.039 mg/L (≈ 0.061 µM)

SMILES: COC(=O)C[C@](O)(CCCC(C)(C)OC(=O)c1cnoc1C)C(=O)O[C@@H]1C(OC)=C[C@]23CCCN2CCc2cc4c(cc2[C@H]13)OCO4 [BS-HH-061]
- IC50 Kasumi-1 ([1]; MTT): 0.062 mg/L (≈ 0.0947 µM)
- IC90 Kasumi-1 ([1]; MTT): 0.23 mg/L (≈ 0.351 µM)
- IC50 NB4 [2]: 0.07 mg/L (≈ 0.107 µM)
- IC90 NB4 [2]: 0.14 mg/L (≈ 0.214 µM)
- IC50 H9 [3]: 0.14 mg/L (≈ 0.214 µM)
- IC90 H9 [3]: 0.25 mg/L (≈ 0.382 µM)
- IC50 K562/adr [4]: 0.24 mg/L (≈ 0.367 µM)
- IC90 K562/adr [4]: 12.57 mg/L (≈ 19.2 µM)
- IC50 Jurkat [5]: 0.071 mg/L (≈ 0.108 µM)
- IC90 Jurkat [5]: ≥ 16 mg/L
- IC50 CaES-17 [6]: 0.38 mg/L (≈ 0.58 µM)
- IC90 CaES-17 [6]: 16 mg/L (≈ 24.4 µM)
- IC50 A549 [7]: 0.52 mg/L (≈ 0.794 µM)
- IC90 A549 [7]: >16 mg/L
- IC50 RKO ([8]; MTT): 0.039 mg/L (≈ 0.0596 µM)
- IC90 RKO ([8]; MTT): 0.24 mg/L (≈ 0.367 µM)
- IC50 MGC 803 [9]: 0.058 mg/L (≈ 0.0886 µM)
- IC90 MGC 803 [9]: 0.16 mg/L (≈ 0.244 µM)
- IC50 PC-3 [10]: 3.15 mg/L (≈ 4.81 µM)
- IC90 PC-3 [10]: >16 mg/L
- IC50 MG 63 ([11]; MTT): 0.093 mg/L (≈ 0.142 µM)
- IC90 MG 63 ([11]; MTT): 10.76 mg/L (≈ 16.4 µM)
- IC50 CNE [12]: 0.42 mg/L (≈ 0.642 µM)
- IC90 CNE [12]: >16 mg/L
- IC50 Huh7 [13]: 0.056 mg/L (≈ 0.0855 µM)
- IC90 Huh7 [13]: 0.34 mg/L (≈ 0.519 µM)
- IC50 U87 MG [14]: 0.31 mg/L (≈ 0.473 µM)
- IC90 U87 MG [14]: 0.96 mg/L (≈ 1.47 µM)
- IC50 SK-OV-3 ([15]; MTT): 0.4 mg/L (≈ 0.611 µM)
- IC90 SK-OV-3 ([15]; MTT): >16 mg/L
- IC50 PANC-1 ([16]; MTT): 0.21 mg/L (≈ 0.321 µM)
- IC90 PANC-1 ([16]; MTT): >16 mg/L
- IC50 Hela [17]: 0.31 mg/L (≈ 0.473 µM)
- IC90 Hela [17]: 16 mg/L (≈ 24.4 µM)
- IC50 Hep-2 [18]: 0.39 mg/L (≈ 0.596 µM)
- IC90 Hep-2 [18]: >16 mg/L
- IC50 Becap37 [19]: 0.17 mg/L (≈ 0.26 µM)
- IC90 Becap37 [19]: 16 mg/L (≈ 24.4 µM)
- IC50 RPMI8226 ([20]; MTT): 0.062 mg/L (≈ 0.0947 µM)
- IC90 RPMI8226 ([20]; MTT): 0.25 mg/L (≈ 0.382 µM)
